Assay results taken from ChEMBL document CHEMBL3822364, “Synthesis, characterization and antimicrobial activity of novel Schiff base tethered boronate esters of 1,2-O-isopropylidene-α-d-xylofuranose” (2016).
In brackets after ≈: the same amount, converted by molar mass. Activity calls are given as the source filed them. The calls are words filed in the database; no cut-off is given here.

Assays:
Aspergillus fumigatus [1] = test: Antifungal activity against Aspergillus fumigatus MTCC 343 assessed as zone of inhibition at 100 ug/well measured after 48 hrs by agar well diffusion method; format: functional; settings: MTCC 343, 48 h, read-out: DIZ
Salmonella paratyphi [2] = test: Antibacterial activity against Salmonella paratyphi assessed as zone of inhibition at 100 ug/well measured after 24 hrs by agar well diffusion method; format: functional, Salmonella enterica subsp. enterica serovar Paratyphi A; settings: Salmonella enterica, read-out: DIZ
Klebsiella pneumoniae [3] = test: Antibacterial activity against Klebsiella pneumoniae MTCC 3384 assessed as zone of inhibition at 100 ug/well measured after 24 hrs by agar well diffusion method; format: functional; settings: MTCC 3384, 24 h, read-out: DIZ
Klebsiella pneumoniae [4] = test: Antibacterial activity against Klebsiella pneumoniae MTCC 3384 measured after 24 hrs by NCCL protocol based broth dilution method; format: functional
Aspergillus fumigatus [5] = test: Antifungal activity against Aspergillus fumigatus MTCC 343 measured after 48 hrs by NCCL protocol based broth dilution method; format: functional
Micrococcus luteus [6] = test: Antibacterial activity against Micrococcus luteus MTCC 106 measured after 24 hrs by NCCL protocol based broth dilution method; format: functional; settings: MTCC 106, 24 h
Staphylococcus aureus [7] = test: Antibacterial activity against Staphylococcus aureus MTCC 3160 measured after 24 hrs by NCCL protocol based broth dilution method; format: functional; settings: MTCC 3160, 24 h
Streptococcus mutans [8] = test: Antibacterial activity against Streptococcus mutans MTCC 497 assessed as zone of inhibition at 100 ug/well measured after 24 hrs by agar well diffusion method; format: functional; settings: MTCC 497, 24 h, read-out: DIZ
Candida albicans [9] = test: Antifungal activity against Candida albicans MTCC 3017 measured after 48 hrs by NCCL protocol based broth dilution method; format: functional; settings: MTCC 3017, 48 h
Salmonella typhi [10] = test: Antibacterial activity against Salmonella typhi assessed as zone of inhibition at 100 ug/well measured after 24 hrs by agar well diffusion method; format: functional, Salmonella enterica subsp. enterica serovar Typhi; settings: Salmonella enterica, read-out: DIZ
Candida albicans [11] = test: Antifungal activity against Candida albicans MTCC 3017 assessed as zone of inhibition at 100 ug/well measured after 48 hrs by agar well diffusion method; format: functional; settings: MTCC 3017, 48 h, read-out: DIZ
Salmonella paratyphi [12] = test: Antibacterial activity against Salmonella paratyphi measured after 24 hrs by NCCL protocol based broth dilution method; format: functional, Salmonella enterica subsp. enterica serovar Paratyphi A
Salmonella typhi [13] = test: Antibacterial activity against Salmonella typhi measured after 24 hrs by NCCL protocol based broth dilution method; format: functional, Salmonella enterica subsp. enterica serovar Typhi
Staphylococcus aureus [14] = test: Antibacterial activity against Staphylococcus aureus MTCC 3160 assessed as zone of inhibition at 100 ug/well measured after 24 hrs by agar well diffusion method; format: functional; settings: MTCC 3160, 24 h, read-out: DIZ
Streptococcus mutans [15] = test: Antibacterial activity against Streptococcus mutans MTCC 497 measured after 24 hrs by NCCL protocol based broth dilution method; format: functional; settings: MTCC 497, 24 h
Micrococcus luteus [16] = test: Antibacterial activity against Micrococcus luteus MTCC 106 assessed as zone of inhibition at 100 ug/well measured after 24 hrs by agar well diffusion method; format: functional; settings: MTCC 106, 24 h, read-out: DIZ

CC1(C)O[C@H]2O[C@@H]3COB(c4cccc(/N=C/c5ccc6ccccc6c5O)c4)O[C@@H]3[C@H]2O1
zone of inhibition at 100 µg/disc (Aspergillus fumigatus [1]): 33 mm | zone of inhibition at 100 µg/disc (Salmonella paratyphi [2]): 13 mm | zone of inhibition at 100 µg/disc (Klebsiella pneumoniae [3]): 19 mm | MIC (Klebsiella pneumoniae [4]; MTCC 3384, 24 h): 62.5 µg/mL (≈ 140 µM) | MIC (Aspergillus fumigatus [5]; MTCC 343, 48 h): 31.2 µg/mL (≈ 70.2 µM) | MIC (Micrococcus luteus [6]): 62.5 µg/mL (≈ 140 µM) | MIC (Staphylococcus aureus [7]): 125 µg/mL (≈ 281 µM) | zone of inhibition at 100 µg/disc (Streptococcus mutans [8]): 17 mm | MIC (Candida albicans [9]): 62.5 µg/mL (≈ 140 µM) | zone of inhibition at 100 µg/disc (Salmonella typhi [10]): 23 mm | zone of inhibition at 100 µg/disc (Candida albicans [11]): 19 mm | MIC (Salmonella paratyphi [12]; Salmonella enterica): 125 µg/mL (≈ 281 µM) | MIC (Salmonella typhi [13]; Salmonella enterica): 62.5 µg/mL (≈ 140 µM) | zone of inhibition at 100 µg/disc (Staphylococcus aureus [14]): 13 mm | MIC (Streptococcus mutans [15]): 125 µg/mL (≈ 281 µM) | zone of inhibition at 100 µg/disc (Micrococcus luteus [16]): 17 mm

CC1(C)O[C@H]2O[C@@H]3COC(c4cccc(/C=N/c5ccc(F)cc5)c4)O[C@@H]3[C@H]2O1 (stereo partly specified)
zone of inhibition at 100 µg/disc (Aspergillus fumigatus [1]): 0 mm | zone of inhibition at 100 µg/disc (Salmonella paratyphi [2]): 0 mm | zone of inhibition at 100 µg/disc (Klebsiella pneumoniae [3]): 0 mm | MIC (Klebsiella pneumoniae [4]): inactive | MIC (Aspergillus fumigatus [5]): inactive | MIC (Micrococcus luteus [6]): 500 µg/mL (≈ 1250 µM) | MIC (Staphylococcus aureus [7]): 500 µg/mL (≈ 1250 µM) | zone of inhibition at 100 µg/disc (Streptococcus mutans [8]): 6 mm | MIC (Candida albicans [9]): 500 µg/mL (≈ 1250 µM) | zone of inhibition at 100 µg/disc (Salmonella typhi [10]): 0 mm | zone of inhibition at 100 µg/disc (Candida albicans [11]): 6 mm | MIC (Salmonella paratyphi [12]; Salmonella enterica subsp. enterica serovar Paratyphi A): inactive | MIC (Salmonella typhi [13]; Salmonella enterica subsp. enterica serovar Typhi): inactive | zone of inhibition at 100 µg/disc (Staphylococcus aureus [14]): 7 mm | MIC (Streptococcus mutans [15]): 250 µg/mL (≈ 626 µM) | zone of inhibition at 100 µg/disc (Micrococcus luteus [16]): 0 mm

CC1(C)O[C@H]2O[C@@H]3COB(c4cccc(/C=N/c5ccccc5)c4)O[C@@H]3[C@H]2O1
zone of inhibition at 100 µg/disc (Aspergillus fumigatus [1]): 0 mm | zone of inhibition at 100 µg/disc (Salmonella paratyphi [2]): 21 mm | zone of inhibition at 100 µg/disc (Klebsiella pneumoniae [3]): 19 mm | MIC (Klebsiella pneumoniae [4]; MTCC 3384, 24 h): 125 µg/mL (≈ 330 µM) | MIC (Aspergillus fumigatus [5]; MTCC 343, 48 h): 500 µg/mL (≈ 1320 µM) | MIC (Micrococcus luteus [6]): 250 µg/mL (≈ 659 µM) | MIC (Staphylococcus aureus [7]): 125 µg/mL (≈ 330 µM) | zone of inhibition at 100 µg/disc (Streptococcus mutans [8]): 21 mm | MIC (Candida albicans [9]): 250 µg/mL (≈ 659 µM) | zone of inhibition at 100 µg/disc (Salmonella typhi [10]): 21 mm | zone of inhibition at 100 µg/disc (Candida albicans [11]): 11 mm | MIC (Salmonella paratyphi [12]; Salmonella enterica): 62.5 µg/mL (≈ 165 µM) | MIC (Salmonella typhi [13]; Salmonella enterica): 62.5 µg/mL (≈ 165 µM) | zone of inhibition at 100 µg/disc (Staphylococcus aureus [14]): 13 mm | MIC (Streptococcus mutans [15]): 62.5 µg/mL (≈ 165 µM) | zone of inhibition at 100 µg/disc (Micrococcus luteus [16]): 14 mm

CC1(C)O[C@H]2O[C@@H]3COB(c4ccc(/C=N/c5ccc(Br)cc5)cc4)O[C@@H]3[C@H]2O1
zone of inhibition at 100 µg/disc (Aspergillus fumigatus [1]): 16 mm | zone of inhibition at 100 µg/disc (Salmonella paratyphi [2]): 24 mm | zone of inhibition at 100 µg/disc (Klebsiella pneumoniae [3]): 17 mm | MIC (Klebsiella pneumoniae [4]; MTCC 3384, 24 h): 62.5 µg/mL (≈ 136 µM) | MIC (Aspergillus fumigatus [5]; MTCC 343, 48 h): 125 µg/mL (≈ 273 µM) | MIC (Micrococcus luteus [6]): 250 µg/mL (≈ 546 µM) | MIC (Staphylococcus aureus [7]): 125 µg/mL (≈ 273 µM) | zone of inhibition at 100 µg/disc (Streptococcus mutans [8]): 17 mm | MIC (Candida albicans [9]): 62.5 µg/mL (≈ 136 µM) | zone of inhibition at 100 µg/disc (Salmonella typhi [10]): 22 mm | zone of inhibition at 100 µg/disc (Candida albicans [11]): 19 mm | MIC (Salmonella paratyphi [12]; Salmonella enterica): 15.6 µg/mL (≈ 34.1 µM) | MIC (Salmonella typhi [13]; Salmonella enterica): 62.5 µg/mL (≈ 136 µM) | zone of inhibition at 100 µg/disc (Staphylococcus aureus [14]): 15 mm | MIC (Streptococcus mutans [15]): 62.5 µg/mL (≈ 136 µM) | zone of inhibition at 100 µg/disc (Micrococcus luteus [16]): 13 mm

CC1(C)O[C@H]2O[C@@H]3COB(c4ccc(C=O)cc4)O[C@@H]3[C@H]2O1
zone of inhibition at 100 µg/disc (Aspergillus fumigatus [1]): 0 mm | zone of inhibition at 100 µg/disc (Salmonella paratyphi [2]): 21 mm | zone of inhibition at 100 µg/disc (Klebsiella pneumoniae [3]): 20 mm | MIC (Klebsiella pneumoniae [4]; MTCC 3384, 24 h): 62.5 µg/mL (≈ 206 µM) | MIC (Aspergillus fumigatus [5]; MTCC 343, 48 h): 250 µg/mL (≈ 822 µM) | MIC (Micrococcus luteus [6]): 125 µg/mL (≈ 411 µM) | MIC (Staphylococcus aureus [7]): 125 µg/mL (≈ 411 µM) | zone of inhibition at 100 µg/disc (Streptococcus mutans [8]): 21 mm | MIC (Candida albicans [9]): 125 µg/mL (≈ 411 µM) | zone of inhibition at 100 µg/disc (Salmonella typhi [10]): 22 mm | zone of inhibition at 100 µg/disc (Candida albicans [11]): 18 mm | MIC (Salmonella paratyphi [12]; Salmonella enterica): 31.2 µg/mL (≈ 103 µM) | MIC (Salmonella typhi [13]; Salmonella enterica): 31.2 µg/mL (≈ 103 µM) | zone of inhibition at 100 µg/disc (Staphylococcus aureus [14]): 12 mm | MIC (Streptococcus mutans [15]): 62.5 µg/mL (≈ 206 µM) | zone of inhibition at 100 µg/disc (Micrococcus luteus [16]): 12 mm

CC1(C)O[C@H]2O[C@@H]3COB(c4cccc(C=O)c4)O[C@@H]3[C@H]2O1
zone of inhibition at 100 µg/disc (Aspergillus fumigatus [1]): 0 mm | zone of inhibition at 100 µg/disc (Salmonella paratyphi [2]): 18 mm | zone of inhibition at 100 µg/disc (Klebsiella pneumoniae [3]): 19 mm | MIC (Klebsiella pneumoniae [4]; MTCC 3384, 24 h): 62.5 µg/mL (≈ 206 µM) | MIC (Aspergillus fumigatus [5]; MTCC 343, 48 h): 500 µg/mL (≈ 1640 µM) | MIC (Micrococcus luteus [6]): 250 µg/mL (≈ 822 µM) | MIC (Staphylococcus aureus [7]): 250 µg/mL (≈ 822 µM) | zone of inhibition at 100 µg/disc (Streptococcus mutans [8]): 22 mm | MIC (Candida albicans [9]): 250 µg/mL (≈ 822 µM) | zone of inhibition at 100 µg/disc (Salmonella typhi [10]): 18 mm | zone of inhibition at 100 µg/disc (Candida albicans [11]): 11 mm | MIC (Salmonella paratyphi [12]; Salmonella enterica): 62.5 µg/mL (≈ 206 µM) | MIC (Salmonella typhi [13]; Salmonella enterica): 62.5 µg/mL (≈ 206 µM) | zone of inhibition at 100 µg/disc (Staphylococcus aureus [14]): 15 mm | MIC (Streptococcus mutans [15]): 62.5 µg/mL (≈ 206 µM) | zone of inhibition at 100 µg/disc (Micrococcus luteus [16]): 12 mm
